From patent publication US20230391760A1, “HETEROCYCLIC GLP-1 AGONISTS” (Gasherbrum Bio, Inc., priority 2020, published 2023)

What follows are compounds tested against GLP-1 Receptor (Homo sapiens, UniProt P43220) (assay: GLP-1R agonist cAMP stimulation assay (HEK293/GLP1R/CRE-LUC cells, cAMP dynamic 2 Kit)). Settings: HEK293/CRE-Luc cell line stably expressing the GLP-1 Receptor, 30 min at 37° C.
Format: cell-based
Description: Activation of GLP-1 receptor is known to stimulate cyclic AMP (cAMP) production in cells which indicates primary coupling to the Gαs subunit of the G protein heterotrimeric complex. […] To optimize functional activity directed toward Gαs coupling, a HEK293/CRE-Luc cell line developed by HDB stably expressing the GLP-1 Receptor was used. 200×concentration of compound working solutions were prepared (Agilent Technologies Bravo) with 1/2 log serial dilution in 384-well Echo LDV plate (Labcyte, Cat #LP-0200). 50 nL/well 200× concentration of compound working solutions were moved to 384-well white low volume plate (Greiner,Cat #784075) using Labcyte ECHO550. 1×10^5 cells/mL HEK293/GLP1R/CRE-LUC(HD Biosciences) cell suspensions prepared with assay buffer[DPBS containing 0.5 mM IBMX(Sigma, Cat #15879) and 0.1% BSA (GENVIEW, Cat #FA016-100 g)], 10 uL cell suspensions were added to each well of previous generated assay plate which already contains 50 nl compound at 200×concentration using ThermoFisher Multidrop Combi (1000 cells/well). Seal the plate and incubate at 37° C. with 5% CO2 for 30 min. After incubation the cAMP assay signal was generated using cAMP dynamic 2 Kit (Cisbio). 5 μL cAMP-d2 working solution was added to each well, followed with 5 μL Anti-cAMP antibody-cryptate working solution added to each well using ThermoFisher Multidrop Combi. Incubate at room temperature for 1 hour protected from light.

Chain of GLP-1 Receptor (P43220 24-463, species assumed): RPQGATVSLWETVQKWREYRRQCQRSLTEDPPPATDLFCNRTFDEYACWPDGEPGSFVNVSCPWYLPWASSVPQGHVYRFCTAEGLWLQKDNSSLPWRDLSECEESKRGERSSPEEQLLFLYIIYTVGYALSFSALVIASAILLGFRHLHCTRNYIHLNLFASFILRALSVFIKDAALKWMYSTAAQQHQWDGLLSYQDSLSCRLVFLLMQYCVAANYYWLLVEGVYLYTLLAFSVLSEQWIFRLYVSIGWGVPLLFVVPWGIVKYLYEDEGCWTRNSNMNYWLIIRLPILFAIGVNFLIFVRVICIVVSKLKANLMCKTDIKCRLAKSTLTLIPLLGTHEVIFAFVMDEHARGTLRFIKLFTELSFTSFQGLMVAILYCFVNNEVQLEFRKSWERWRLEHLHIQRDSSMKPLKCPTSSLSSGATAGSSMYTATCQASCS

Row | Structure (SMILES) | EC50
1 | CC1(c2ccc(Cl)cn2)Oc2cccc(C3CCN(Cc4nc5cc(-c6n[nH]c(C(F)(F)F)n6)cnc5n4C[C@@H]4CCO4)CC3)c2O1 (mixture of isomers) [Compound 333a, 5-chloro-2-(2-methyl-4-{1-[(3-{[(2S)-oxetan-2-yl]methyl}-6-[5-(trifluoromethyl)-4H-1,2,4-triazol-3-yl]-3H-imidazo[4,5-b]pyridin-2-yl)methyl]piperidin-4-yl}-2H-1,3-benzodioxol-2-yl)pyridine] | 0.03 nM
2 | Fc1cc(Cl)ccc1COc1cc(C2=CCN(Cc3nc4cc(-c5nnc(C(F)(F)F)[nH]5)ncc4n3C[C@@H]3CCO3)CC2)ccc1F [Compound 297a, 4-{3-[(4-chloro-2-fluorophenyl)methoxy]-4-fluorophenyl}-1-[(3-{[(2S)-oxetan-2-yl]methyl}-6-[5-(trifluoromethyl)-4H-1,2,4-triazol-3-yl]-3H-imidazo[4,5-c]pyridin-2-yl)methyl]-1,2,3,6-tetrahydropyridine] | 0.098 nM
3 | Cc1ccc(COc2cccc(C3CCN(Cc4nc5cc(-c6nnc(C(F)(F)F)[nH]6)ncc5n4C[C@@H]4CCO4)CC3)n2)c(F)c1 [Compound 496a, 2-[(2-fluoro-4-methylphenyl)methoxy]-6-{1-[(3-{[(2S)-oxetan-2-yl]methyl}-6-[5-(trifluoromethyl)-4H-1,2,4-triazol-3-yl]-3H-imidazo[4,5-c]pyridin-2-yl)methyl]piperidin-4-yl}pyridine] | 0.017 nM
4 | CC1(c2ccc(Cl)cc2F)Oc2cccc(C3CCN(Cc4nc5cc(-c6noc(=O)[nH]6)cnc5n4C[C@H]4CCCO4)CC3)c2O1 (stereo partly drawn) [Compound 399a, 3-[2-({4-[2-(4-chloro-2-fluorophenyl)-2-methyl-2H-1,3-benzodioxol-4-yl]piperidin-1-yl}methyl)-3-{[(2R)-oxolan-2-yl]methyl}-3H-imidazo[4,5-b]pyridin-6-yl]-4,5-dihydro-1,2,4-oxadiazol-5-one] | 17 nM
5 | CC1(c2ccc(Cl)cc2F)Oc2cccc(C3CCN(Cc4nc5cc(-c6nnc(C(F)(F)F)[nH]6)cnc5n4C[C@@H]4CCO4)CC3)c2O1 (mixture of isomers) [Compound 224a, 4-[2-(4-chloro-2-fluorophenyl)-2-methyl-2H-1,3-benzodioxol-4-yl]-1-[(3-{[(2S)-oxetan-2-yl]methyl}-6-[5-(trifluoromethyl)-4H-1,2,4-triazol-3-yl]-3H-imidazo[4,5-b]pyridin-2-yl)methyl]piperidine] | 0.018 nM
6 | O=C(Nc1ccc2c(c1)nc(CN1CCC(c3cccc(OCc4ccc(Cl)cc4F)n3)CC1)n2C[C@@H]1CCO1)c1cnc2ccccn12 [Compound 181a, N-{2-[(4-{6-[(4-chloro-2-fluorophenyl)methoxy]pyridin-2-yl}piperidin-1-yl)methyl]-1-{[(2S)-oxetan-2-yl]methyl}-1H-1,3-benzodiazol-5-yl}imidazo[1,2-a]pyridine-3-carboxamide] | 0.31 nM
7 | O=C(O)c1ccc2c(c1)nc(CN1CC=C(c3cccc(OCc4ccc(Cl)cc4F)n3)CC1)n2C[C@@H]1CCO1 [Compound 111a, (S)-2-((6-((4-chloro-2-fluorobenzyl)oxy)-3′,6′-dihydro-[2,4′-bipyridin]-1′(2′H)-yl)methyl)-1-(oxetan-2-ylmethyl)-1H-benzo[d]imidazole-5-carboxylic acid] | 1.09 nM
8 | Cc1nc(-c2nnc(C(F)(F)F)[nH]2)cc2nc(CN3CCC(c4cccc5c4O[C@@](C)(c4ccc(Cl)cc4F)O5)CC3)n(C[C@@H]3CCO3)c12 [Compound 302a, 4-[(2S)-2-(4-chloro-2-fluorophenyl)-2-methyl-2H-1,3-benzodioxol-4-yl]-1-[(4-methyl-3-{[(2S)-oxetan-2-yl]methyl}-6-[5-(trifluoromethyl)-4H-1,2,4-triazol-3-yl]-3H-imidazo[4,5-c]pyridin-2-yl)methyl]piperidine] | 0.17 nM
9 | CC(=O)Nc1ccc2c(c1)nc(CN1CCC(c3cccc4c3OC(C)(c3ccc(Cl)cc3F)O4)CC1)n2C[C@@H]1CCO1 (stereo partly drawn) [Compound 240a, N-(2-((4-(2-(4-chloro-2-fluorophenyl)-2-methylbenzo[d][1,3]dioxol-4-yl)piperidin-1-yl)methyl)-1-(((S)-oxetan-2-yl)methyl)-1H-benzo[d]imidazol-5-yl)acetamide] | 1.1 nM
10 | CC1(c2ccc(C#N)cc2F)Oc2cccc(C3CCN(Cc4nc5cc(-c6nnc(C7CC7)[nH]6)ccc5n4C[C@@H]4CCO4)CC3)c2O1 (stereo partly drawn) [Compound 277a, 4-[4-(1-{[5-(5-cyclopropyl-4H-1,2,4-triazol-3-yl)-1-{[(2S)-oxetan-2-yl]methyl}-1H-1,3-benzodiazol-2-yl]methyl}piperidin-4-yl)-2-methyl-2H-1,3-benzodioxol-2-yl]-3-fluorobenzonitrile] | 0.15 nM
11 | CO[C@H](C)Cn1c(CN2CCC(c3cccc4c3O[C@@](C)(c3ccc(C#N)cc3F)O4)CC2)nc2cc(-c3nnc(C(F)(F)F)[nH]3)ncc21 [Compound 442a, 3-fluoro-4-[(2S)-4-[1-({3-[(2R)-2-methoxypropyl]-6-[5-(trifluoromethyl)-4H-1,2,4-triazol-3-yl]-3H-imidazo[4,5-c]pyridin-2-yl}methyl)piperidin-4-yl]-2-methyl-2H-1,3-benzodioxol-2-yl]benzonitrile] | 0.033 nM
12 | C[C@H]1CN(c2ccc(F)c(OCc3ccc(Cl)cc3F)c2)CCN1Cc1nc2cc(-c3nnc(C(F)(F)F)[nH]3)nnc2n1C[C@@H]1CCO1 [Compound 518a, (2S)-4-{3-[(4-chloro-2-fluorophenyl)methoxy]-4-fluorophenyl}-2-methyl-1-[(7-{[(2S)-oxetan-2-yl]methyl}-3-[5-(trifluoromethyl)-4H-1,2,4-triazol-3-yl]-7H-imidazo[4,5-c]pyridazin-6-yl)methyl]piperazine] | 0.41 nM
13 | N#Cc1ccc(COc2cccc(C3=CCN(Cc4nc5cc(-c6nnc(C(F)(F)F)[nH]6)cnc5n4C[C@@H]4CCO4)CC3)n2)c(F)c1 [Compound 321a, 3-fluoro-4-[({1′-[(3-{[(2S)-oxetan-2-yl]methyl}-6-[5-(trifluoromethyl)-4H-1,2,4-triazol-3-yl]-3H-imidazo[4,5-b]pyridin-2-yl)methyl]-1′,2′,3′,6′-tetrahydro-[2,4′-bipyridin]-6-yl}oxy)methyl]benzonitrile] | 0.022 nM
14 | CNC(=O)Nc1ccc2c(c1)nc(CN1CCC(c3cccc(OCc4ccc(Cl)cc4F)n3)CC1)n2C[C@@H]1CCO1 [Compound 145a, 1-{2-[(4-{6-[(4-chloro-2-fluorophenyl)methoxy]pyridin-2-yl}piperidin-1-yl)methyl]-1-{[(2S)-oxetan-2-yl]methyl}-1H-1,3-benzodiazol-5-yl}-3-methylurea] | 0.16 nM

The remaining lines, values ahead:

Row | EC50 | Structure (SMILES)
15 | 3.6 nM | Fc1cc(Cl)ccc1COc1cccc(C2CCN(Cc3nc4cc(-n5cc(C6CCCOC6)nn5)ccc4n3C[C@@H]3CCO3)CC2)n1 (stereo partly drawn) [Compound 211a, 2-[(4-{6-[(4-chloro-2-fluorophenyl)methoxy]pyridin-2-yl}piperidin-1-yl)methyl]-5-[4-(oxan-3-yl)-1H-1,2,3-triazol-1-yl]-1-{[(2S)-oxetan-2-yl]methyl}-1H-1,3-benzodiazole]
16 | 0.32 nM | Fc1cc(Cl)ccc1COc1ncc(F)c(C2=CCC(Cc3nc4cc(-c5nnn[nH]5)ccc4n3C[C@@H]3CCO3)CC2)n1 (stereo partly drawn) [Compound 241a, 2-((4-(2-((4-chloro-2-fluorobenzyl)oxy)-5-fluoropyrimidin-4-yl)cyclohex-3-en-1-yl)methyl)-1-(((S)-oxetan-2-yl)methyl)-5-(1H-tetrazol-5-yl)-1H-benzo[d]imidazole]
17 | 1.1 nM | O=C(Nc1ccc2c(c1)nc(CN1CCC(c3cccc(OCc4ccc(Cl)cc4F)n3)CC1)n2C[C@@H]1CCO1)C(F)(F)F [Compound 167a, N-{2-[(4-{6-[(4-chloro-2-fluorophenyl)methoxy]pyridin-2-yl}piperidin-1-yl)methyl]-1-{[(2S)-oxetan-2-yl]methyl}-1H-1,3-benzodiazol-5-yl}-2,2,2-trifluoroacetamide]
18 | 2.8 nM | O=C(Nc1ccc2c(c1)nc(CN1CCC(c3cccc(OCc4ccc(Cl)cc4F)n3)CC1)n2C[C@@H]1CCO1)N1CCC(F)(F)C1 [Compound 205a, N-{2-[(4-{6-[(4-chloro-2-fluorophenyl)methoxy]pyridin-2-yl}piperidin-1-yl)methyl]-1-{[(2S)-oxetan-2-yl]methyl}-1H-1,3-benzodiazol-5-yl}-3,3-difluoropyrrolidine-1-carboxamide]
19 | 0.78 nM | O=C(Nc1ccc2c(c1)nc(CN1CCC(c3cccc(OCc4ccc(Cl)cc4F)n3)CC1)n2C[C@@H]1CCO1)N1CCC(F)C1 (stereo partly drawn) [Compound 206a, N-{2-[(4-{6-[(4-chloro-2-fluorophenyl)methoxy]pyridin-2-yl}piperidin-1-yl)methyl]-1-{[(2S)-oxetan-2-yl]methyl}-1H-1,3-benzodiazol-5-yl}-3-fluoropyrrolidine-1-carboxamide]
20 | 2.8 nM | Cn1nc(-c2ccc3c(c2)nc(CN2CCC(c4cccc5c4OC(C)(c4ccc(Cl)cc4F)O5)CC2)n3C[C@@H]2CCO2)oc1=O (stereo partly drawn) [Compound 220a, 5-[2-({4-[2-(4-chloro-2-fluorophenyl)-2-methyl-2H-1,3-benzodioxol-4-yl]piperidin-1-yl}methyl)-1-{[(2S)-oxetan-2-yl]methyl}-1H-1,3-benzodiazol-5-yl]-3-methyl-2,3-dihydro-1,3,4-oxadiazol-2-one]
